{
  "source": "patent US20240182526A1",
  "about": "“COMPOSITIONS AND METHODS FOR MODULTING INFLAMMATORY AND DEGENERATIVE DISORDER” (University of Southern California, priority 2021, published 2024)",
  "key": {"gp130 and pSRC": {"test_system": "gp130 and pSRC", "experiment": "Co-immunoprecipitation of complex formation between gp130 and pSRC in pig articular chondrocytes", "format": "cell-based", "conditions": "pig articular chondrocytes with or without OSM, 4 and 24 hours", "protocol": "(§1) IP Western, SDS-PAGE and Western blot analysis. For transfections of gp130 wild type (WT) (InVivoGen) and gp130 mutant plasmids (Thermo Scientific), cells were plated 24 h prior to transfection to produce monolayers that were 60% confluent and these were transfected by using Turbo DNAfectin 3000 (cat #G3000, Lambda Biotech) according to the manufacturer's protocol. 72h after transfection, cells were maintained in DMEM (10% FBS, 1% PSA) and were either left untreated or were stimulated with IL-6 (10 ng/mL) and/or OSM (10 ng/mL) for 24 h before cell harvest and protein extraction. For immunoprecipitation assays, cell lysates were incubated with Protein G Agarose (cat #20398, Pierce) and anti-Flag antibody (cat #2368, Cell Signaling) at 4° C. overnight. The immune complexes were sedimented, washed and separated by SDS-PAGE (see below) and further analyzed by Western blot using p-SRC (pY416-SRC) (cat #1246F, Novus Biologicals) or NEMO (cat #18474-1-AP, Proteintech) antibodies and normalized to gp130 (cat #bs-1459R, Bioss) or total SRC (cat #2123, Cell Signaling). For R805 treatment, the immune complexes were sedimented, washed and separated by SDS-PAGE and further analyzed by Western blot using OSMR (cat #ab85575, Abcam), LIFR (Santa cat #515337, Cruz Biotechnology) or p-SRC (pY416-SRC) (Novus Biologicals, cat #1246F). Histone H3 (cat #9715, Cell Signaling), gp130 (cat #bs-1459R, Bioss), total SRC (cat #2123, Cell Signaling) or Flag antibody (cat #14739, Cell Signaling) were used as loading controls.\nThe studies delineate that gp130 Y814 regulates SRC downstream signaling; since SRC is known to associate with gp130, it was hypothesized that gp130 and SRC are capable of physically interacting on Y814 and hindering this interaction will prevent SRC from signaling. In order to impede this interaction, experiments were performed using an innovative peptide library screen with short and overlapping peptides mimicking the motif of gp130 around Y814 that were individually tested for pSRC downregulation; these peptides ranged from 4-15 amino acids. The peptides contained a protein sequence stretch of consecutive amino acids surrounding gp130 Y814 residue. To test their efficacy, pig articular chondrocytes were stimulated with or without OSM in presence or absence of the peptides followed by co-immunoprecipitation to determine interaction and western blot detecting pSRC activity. […] Due to sequence specificity, the peptide is capable of discriminating among other gp130 regions serving as a competitive inhibitor."}, "pNF-κB p65": {"test_system": "pNF-κB p65", "experiment": "Western blot of pNF-κB p65 in pig articular chondrocytes", "format": "cell-based", "conditions": "pig articular chondrocytes, OSM, 24 hours", "protocol": "(§2) For standard western blot, treated and non-treated cells were lysed in RIPA Lysis and Extraction Buffer (Pierce, Rockford, IL) containing protease inhibitors (Pierce) followed by sonication with a 15-second pulse at a power output of 2 using the VirSonic 100 (SP Industries Company, Warminster, PA). Protein concentrations were determined by BCA protein assay (Pierce). Proteins were resolved with SDS-PAGE utilizing 4-15% Mini-PROTEAN TGX Precast Gels and transferred to Trans-Blot Turbo Transfer Packs with a 0.2-μm pore-size nitrocellulose membrane. The SDS-PAGE running buffer, 4-15% Mini-PROTEAN TGX Precast Gels, Trans-Blot Turbo Transfer Packs with a 0.2-μm pore-size nitrocellulose membrane was purchased from Biorad (Hercules, CA). Nitrocellulose membranes were blocked in 5% nonfat milk in 0.05% (v/v) Tween 20 (PBST) (Corning, Manassas, VA). Membranes were then incubated with primary antibodies p-gp130 Y814 (Evseenko lab, AbClonal), p-AKT (cat #4060, Cell Signaling), p-ERK 1/2 (cat #9106, Cell Signaling), p-Y416-SRC (cat #1246F, Novus Biologicals), p-gp130 (cat #1453R, Bioss USA) and p-NFκBp65 (cat #8242, Cell Signaling), and/or YAP1 (cat #4912, Cell Signaling). Histone H3 (cat #9515, Cell Signaling) was used as loading control. After washing in PBS containing 0.05% (v/v) Tween 20 (PBST), membranes were incubated with rabbit (cat #31460, Thermo Scientific) or mouse IgG-HRP (cat #31430, Thermo Scientific) secondary antibodies. After washing, membranes were developed with the Clarity Western ECL Blotting Substrate (Hercules, CA). Quantification of blots was performed using ImageJ 1.44 followed by Prism9 for analysis."}, "[1]": {"test_system": "pro-inflammatory signaling in osteoarthritic chondrocytes", "experiment": "Western blot of pro-inflammatory signaling proteins in osteoarthritic chondrocytes", "format": "cell-based, human", "conditions": "4 and 24 hours", "protocol": "as §2, with “After washing in PBS containing 0.05% (v/v) Tween 20 (PBST), membranes were incubated with rabbit (cat #31460, Thermo Scientific) or mouse IgG-HRP (cat #31430, Thermo Scientific) secondary antibodies. After washing, membranes were developed with the Clarity Western ECL Blotting Substrate (Hercules, CA).” left out"}, "[2]": {"target": "T1, heterodimerization of gp130 with IL-6 family of cytokines' alpha receptors (Homo sapiens, UniProt P40189)", "T1 construct": "A plasmid encoding full-length gp130 (WTgp130; InVivoGen) was used to create the 5 mutants; expressed in transfected cells", "T1 sequence (P40189 23-918, one chain of several)": "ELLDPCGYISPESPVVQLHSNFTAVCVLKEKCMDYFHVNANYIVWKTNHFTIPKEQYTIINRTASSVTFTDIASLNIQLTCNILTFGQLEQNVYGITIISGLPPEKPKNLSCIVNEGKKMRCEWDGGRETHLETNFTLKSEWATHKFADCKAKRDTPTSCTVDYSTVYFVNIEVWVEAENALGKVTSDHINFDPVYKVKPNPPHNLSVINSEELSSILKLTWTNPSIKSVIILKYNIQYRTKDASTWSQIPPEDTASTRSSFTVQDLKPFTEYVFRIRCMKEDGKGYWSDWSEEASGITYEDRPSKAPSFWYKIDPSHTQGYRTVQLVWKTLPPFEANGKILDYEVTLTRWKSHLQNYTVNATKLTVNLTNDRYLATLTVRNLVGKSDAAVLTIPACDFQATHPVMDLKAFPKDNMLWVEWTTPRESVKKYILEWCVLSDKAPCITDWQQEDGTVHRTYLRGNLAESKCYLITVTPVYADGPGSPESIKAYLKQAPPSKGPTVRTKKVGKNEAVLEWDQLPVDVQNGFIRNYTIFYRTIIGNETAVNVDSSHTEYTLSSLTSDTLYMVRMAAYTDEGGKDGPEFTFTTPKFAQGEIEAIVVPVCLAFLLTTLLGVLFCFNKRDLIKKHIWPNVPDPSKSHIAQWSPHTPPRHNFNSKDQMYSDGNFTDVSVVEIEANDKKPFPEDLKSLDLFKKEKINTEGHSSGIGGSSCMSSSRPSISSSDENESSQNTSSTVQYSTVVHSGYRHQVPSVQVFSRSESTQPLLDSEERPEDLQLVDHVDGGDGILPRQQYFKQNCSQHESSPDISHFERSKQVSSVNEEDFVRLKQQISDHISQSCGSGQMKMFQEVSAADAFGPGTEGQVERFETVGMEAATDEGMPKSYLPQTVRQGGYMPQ", "experiment": "Receptor-competition assay (co-IP of gp130 FLAG with alpha receptors)", "format": "cell-based", "conditions": "articular chondrocytes transfected with gp130 FLAG, different doses, 4 and 24 hours", "protocol": "as §1, with “Histone H3 (cat #9715, Cell Signaling), gp130 (cat #bs-1459R, Bioss), total SRC (cat #2123, Cell Signaling) or Flag antibody (cat #14739, Cell Signaling) were used as loading controls.” left out"}},
  "note": "Entries after “also recorded” stand apart in the source; their conditions may differ.",
  "data": [
    {"smiles": "Cc1ccc(-c2csc(NC(=O)c3ccccn3)n2)cc1", "note": "[Peptide R805]", "values": [
      {"measurement": "complex formation between gp130 and pSRC (gp130-SRC interaction)", "setting": "gp130 and pSRC", "result": "able to prevent endogenous interaction of SRC with gp130; also recorded: prevents SRC binding to gp130"},
      {"measurement": "protein levels of pNF-κB p65 after OSM stimulation", "setting": "pNF-κB p65", "result": "markedly suppressed"},
      {"measurement": "pro-inflammatory signaling in diseased tissue", "setting": "[1]", "result": "markedly suppressed; also recorded: prevents pro-inflammatory signaling in diseased tissue"},
      {"measurement": "IL-6 family-induced heterodimerization of gp130 with α-receptors", "setting": "[2]", "result": "markedly suppressed; also recorded: inhibits heterodimerization of gp130 with IL-6 family of cytokines' alpha receptors"}
    ]}
  ]
}
